{"source": "patent US11642344B2", "about": "“Cholesteryl ester transfer protein (CETP) inhibitor and pharmaceutical compositions comprising said inhibitor for use in the treatment or prevention of cardiovascular diseases” (NewAmsterdam Pharma B.V., priority 2014, dated 2023)", "key": {"CETP [1]": {"molecular_target": "T1, CETP (Homo sapiens, UniProt P11597)", "T1 construct": "from tissue; host or cells: plasma of Caucasian male subjects dosed with Compound A or placebo", "T1 sequence (P11597 18-493)": "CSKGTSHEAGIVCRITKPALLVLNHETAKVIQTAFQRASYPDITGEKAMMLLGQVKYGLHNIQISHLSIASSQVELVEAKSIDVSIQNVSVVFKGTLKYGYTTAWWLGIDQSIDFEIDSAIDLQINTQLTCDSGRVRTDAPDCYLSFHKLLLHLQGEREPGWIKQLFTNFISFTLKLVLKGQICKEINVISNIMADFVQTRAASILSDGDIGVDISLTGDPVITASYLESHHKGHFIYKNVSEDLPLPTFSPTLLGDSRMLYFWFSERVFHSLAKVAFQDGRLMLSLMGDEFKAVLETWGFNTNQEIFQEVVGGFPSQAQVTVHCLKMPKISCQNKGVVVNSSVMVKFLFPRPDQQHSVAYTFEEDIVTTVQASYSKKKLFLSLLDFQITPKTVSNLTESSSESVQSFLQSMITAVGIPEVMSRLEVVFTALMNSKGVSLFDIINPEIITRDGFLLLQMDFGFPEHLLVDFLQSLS", "assay": "Clinical repeated dose study: plasma CETP activity", "assay_type": "in vivo", "settings": "for Maximum % change from baseline in CETP activity: repeated oral doses, steady state, mean", "description": "(§1) The clinical study was a repeated dose study in 5 groups of Caucasian male subjects aged 18 to 55 years. Each subject received a single oral dose of Compound A/placebo on Day 1, followed by once daily doses on Days 8 to 35 (5 mg Compound A/placebo—Group 1) or Days 8 to 28 (1, 2.5, 10 and 25 mg Compound A/placebo—Groups 2 to 5). All doses were administered at the study center after a standard breakfast. Subjects in each dose group were allocated to study treatment in a ratio of 10 Compound A to 2 placebo. Blood samples for pharmacokinetic and pharmacodynamic (CETP activity, CETP concentration, HDL-C, LDL-C, total cholesterol, triglycerides) assessments were collected from prior to each dose and at intervals throughout the study until 336 hours after the last dose. Secondary pharmacodynamic endpoints (including apolipoproteins A1, A2, B, and E, HDL2-C, HDL3-C, phospholipids, HDL-free cholesterol [HDL-FC], HDL-cholesteryl ester [HDL-CE], HDL-phospholipids [HDL-PL], HDL-triglycerides [HDL-TG], and LDL particle size) were measured at intervals until the last day of dosing. Urine was collected for pharmacokinetics from pre dose and at intervals up to 72 hours after the first and last dose. Safety assessments including adverse events, blood pressure and pulse rate, ECGs, laboratory safety tests (including aldosterone) and physical examinations were conducted throughout both studies.\n(§2) Plasma and urine concentrations of Compound A were determined using validated liquid chromatography with tandem mass spectrometry (LC/MS/MS) methods. The lower limit of quantification (LLQ) for both assays was 0.500 ng/mL. Plasma concentration of CETP was determined using a validated enzyme-linked immunosorbent assay (ELISA) method with a lower limit of quantification (LLQ) of 0.500 μg/mL. CETP activity was determined as the rate of [^3H]-labeled CE transfer from donor HDL to acceptor VLDL/LDL. [^3H]CE-labeled HDL was added to human plasma and incubated for 4 hours at 37° C. Non-HDL lipoproteins were precipitated and separated from HDL, and the amount of radioactivity in the supernatant was quantitated. CETP activity was determined as the difference of the radioactivity between the samples incubated at 37° C. and 4° C. HDL-C and LDL-C were measured by homogenous enzymatic colorimetric assay using a Modular analyser (Roche Diagnostics). Total cholesterol and triglycerides were measured by homogenous enzymatic assay using a Modular analyser (cholesterol oxidase peroxidase-peroxidase aminophenazone phenol [CHOP-PAP]) method and a glycerol phosphate oxidase [GPO-PAP] method, respectively. ApoA1, ApoA2, ApoB and ApoE were measured by immunoturbidimetry using reagents from Rolf Greiner Biochemica (Germany) and N-apoprotein standard serum from Siemens (Germany). LDL particle size was determined by gradient gel electrophoresis. HDL fraction was separated by a combined ultracentrifugation-precipitation method (Beta-quantification). HDL-2 and HDL-3 fractions were then separated by further ultracentrifugation. Total-cholesterol in HDL, HDL-2 and HLD-3 fractions, free cholesterol in HDL fraction, triglycerides in HDL fraction and phospholipids in plasma and HDL-fraction were measured using enzymatic methods and reagents from Diasys Diagnostics (Germany). The measurements were performed on an Olympus AU600 automatic analyzer and were calibrated using secondary standards from Roche Diagnostics (Total-cholesterol, triglycerides) and Diasys Diagnostics (free cholesterol, phospholipids), respectively. Esterified cholesterol was calculated as the difference between total-cholesterol and free cholesterol.\n(§3) The sample sizes for the study were chosen based on practical considerations rather than statistical power. The numbers of subjects in each group were considered to be adequate to assess the main objectives of each study. Subjects were allocated to Compound A or placebo in each group by means of a computer-generated randomization code. […]"}, "[2]": {"assay": "Clinical repeated dose study: pharmacokinetics (LC/MS/MS plasma concentrations)", "assay_type": "in vivo, human", "description": "as §1, §2, §3"}, "CETP [3]": {"system": "CETP", "assay": "Clinical repeated dose study: plasma CETP concentration (ELISA)", "assay_type": "in vivo, human", "settings": "for Maximum % change from baseline in CETP concentration: repeated oral doses, steady state, mean", "description": "as §1, §2, §3"}, "[4]": {"assay": "Clinical repeated dose study: safety assessments", "assay_type": "in vivo, human", "settings": "repeated doses up 25 mg once daily", "description": "as §1"}, "[5]": {"settings": "steady state, for a 25-fold increase in dose"}}}
{"smiles": "CCOC(=O)N1c2ccc(C(F)(F)F)cc2[C@@H](N(Cc2cc(C(F)(F)F)cc(C(F)(F)F)c2)c2ncc(OCCCC(=O)O)cn2)C[C@H]1CC", "note": "[Compound A, {4-[(2-{[3,5-bis(trifluoromethyl)benzyl][(2R,4S)-1-(ethoxycarbonyl)-2-ethyl-6-(trifluoromethyl)-1,2,3,4-tetrahydroquinolin-4-yl]amino}pyrimidin-5-yl)oxy]butanoic acid}]", "values": [{"measurement": "Maximum % change from baseline in CETP activity", "setting": "CETP [1]; 1 mg once daily, Caucasian male healthy subjects", "value": "−66.5", "unit": "%"}, {"measurement": "Maximum % change from baseline in CETP activity", "setting": "CETP [1]; 2.5 mg once daily", "value": "−91.6", "unit": "%"}, {"measurement": "Maximum % change from baseline in CETP activity", "setting": "CETP [1]; 5 mg once daily", "value": "−90.9", "unit": "%"}, {"measurement": "Maximum % change from baseline in CETP activity", "setting": "CETP [1]; 10 mg once daily", "value": "−97.6", "unit": "%"}, {"measurement": "Maximum % change from baseline in CETP activity", "setting": "CETP [1]; 25 mg once daily", "value": "−99.4", "unit": "%"}, {"measurement": "CETP activity below baseline after last dose", "setting": "CETP [1]; 2 weeks following 10 and 25 mg dosing", "value": "approximately 50%"}, {"measurement": "CETP activity after the last dose (in words)", "setting": "CETP [1]; by 2 weeks following the lowest dose (1 mg)", "value": "approaching baseline levels"}, {"measurement": "time to maximum effect on CETP inhibition", "setting": "CETP [1]; once daily dosing, each dose", "value": "≤ 1", "unit": "week"}, {"measurement": "CETP inhibition (in words)", "setting": "CETP [1]; repeated once daily dosages as low as 2.5 mg", "value": "near complete CETP-inhibition"}, {"measurement": "accumulation with once daily dosing", "setting": "[2]; 1 mg", "value": "approximately 6 fold"}, {"measurement": "accumulation with once daily dosing", "setting": "[2]; 25 mg", "value": 2, "unit": "fold"}, {"measurement": "residual effects on cessation of dosing", "setting": "[2]; at the claimed dose (1 to 25 mg per day)", "value": "does not show prolonged residual effects"}, {"measurement": "food effects", "setting": "[2]; clinical studies", "value": "does not suffer from food effects"}, {"measurement": "half-life", "setting": "[2]; male, human, plasma, oral, following the last dose, independent of dose, read-out: mean terminal half-life", "value": "121 to 151", "unit": "h"}, {"measurement": "Tmax", "setting": "[2]; male, human, plasma, oral, post-dose, independent of dose, 1 to 25 mg, read-out: Tmax (median)", "value": "4 to 6", "unit": "h"}, {"measurement": "CVs for Cmax, Cmin and AUC parameters", "setting": "[2]; single and multiple dosing", "value": "≤ 33", "unit": "%"}, {"measurement": "increase of plasma concentrations with dose", "setting": "[2]; single doses from 1 to 25 mg", "value": "approximately proportionally to dose"}, {"measurement": "increase in AUC0-tau,ss", "setting": "[2]; [5]", "value": 9, "unit": "fold"}, {"measurement": "increase in Cmax,ss", "setting": "[2]; [5]", "value": 12, "unit": "fold"}, {"measurement": "increase in Cmin,ss", "setting": "[2]; [5]", "value": 7, "unit": "fold"}, {"measurement": "Maximum % change from baseline in CETP concentration", "setting": "CETP [3]; 1 mg once daily", "value": 128, "unit": "%"}, {"measurement": "Maximum % change from baseline in CETP concentration", "setting": "CETP [3]; 2.5 mg once daily", "value": 144, "unit": "%"}, {"measurement": "Maximum % change from baseline in CETP concentration", "setting": "CETP [3]; 5 mg once daily", "value": 215, "unit": "%"}, {"measurement": "Maximum % change from baseline in CETP concentration", "setting": "CETP [3]; 10 mg once daily", "value": 249, "unit": "%"}, {"measurement": "Maximum % change from baseline in CETP concentration", "setting": "CETP [3]; 25 mg once daily", "value": 280, "unit": "%"}, {"measurement": "CETP concentration higher than baseline after cessation of dosing", "setting": "CETP [3]; 2 weeks following 10 mg and 25 mg", "value": "approximately 1.4 fold"}, {"measurement": "CETP concentration after cessation of dosing (in words)", "setting": "CETP [3]; within 2 weeks following 1 mg and 5 mg", "value": "approaching baseline values"}, {"measurement": "effect on serum electrolyte or aldosterone concentrations", "setting": "[4]", "value": "no effect"}, {"measurement": "effects on blood pressure or heart rate, ECG variables, physical examination or laboratory safety tests", "setting": "[4]", "value": "no clinically significant effects"}, {"measurement": "serious adverse events", "setting": "[4]", "value": "no serious adverse events"}, {"measurement": "tolerability", "setting": "[4]", "value": "well tolerated"}]}
